Measured values as given in PMC4986129, “A Peroxidase-linked Spectrophotometric Assay for the Detection of Monoamine Oxidase Inhibitors” (Iranian Journal of Pharmaceutical Research : IJPR, 2016).

Target: T1, MAO-B (Rattus norvegicus, UniProt P19643)
T1 construct: gene Maob
T1 sequence (P19643 2-520): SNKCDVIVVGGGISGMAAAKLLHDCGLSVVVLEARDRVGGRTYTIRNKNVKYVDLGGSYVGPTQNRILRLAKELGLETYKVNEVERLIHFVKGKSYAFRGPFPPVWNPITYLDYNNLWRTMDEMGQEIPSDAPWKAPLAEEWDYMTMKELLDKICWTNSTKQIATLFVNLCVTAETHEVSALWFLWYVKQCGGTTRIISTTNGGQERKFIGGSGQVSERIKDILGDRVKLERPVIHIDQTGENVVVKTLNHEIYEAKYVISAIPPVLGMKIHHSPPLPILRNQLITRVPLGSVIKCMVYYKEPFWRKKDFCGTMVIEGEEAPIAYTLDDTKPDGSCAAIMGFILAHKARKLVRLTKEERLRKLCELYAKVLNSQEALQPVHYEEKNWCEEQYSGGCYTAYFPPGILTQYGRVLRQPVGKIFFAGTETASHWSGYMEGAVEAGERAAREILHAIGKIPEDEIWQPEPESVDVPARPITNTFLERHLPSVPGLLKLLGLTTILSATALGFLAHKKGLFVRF
Assay: peroxidase-linked spectrophotometric assay, crude rat liver mitochondria with MAO-A blocked by clorgyline
Type: biochemical

C#CCN(C)Cc1ccccc1 [pargyline]
IC50: 0.0134 ± 0.00016 µM
